What was measured:
Assay type in all cases: ADME, tissue-based; call rule not given here
Brain [1] = assay: Drug uptake in P-gp/Bcrp knockout mouse brain after 60 mins; conditions: in vivo, 1 h
Brain [2] = assay: Drug uptake in P-gp/Bcrp knockout mouse brain by Positron emission tomography; conditions: in vivo
Brain [3] = assay: Drug uptake in wild-type mouse brain by Positron emission tomography; conditions: in vivo
Brain [4] = assay: Drug uptake in wild-type mouse brain after 60 mins; conditions: in vivo, 1 h

CNC(=O)c1cc(Oc2ccc(N[11C](=O)Nc3ccc(Cl)c(C(F)(F)F)c3)cc2)ccn1 [[11C]-SORAFENIB]
SUV (Brain [1]): 6.72 | Drug uptake (Brain [2]): Active | Drug uptake (Brain [3]): Active | SUV (Brain [4]): 18.83

From ChEMBL document CHEMBL1759848, “[11C]sorafenib: radiosynthesis and preliminary PET study of brain uptake in P-gp/Bcrp knockout mice” (Bioorg Med Chem Lett, 2011)
